Values joined by “and” are separate entries in the source; they are usually repeats but may differ in a detail not shown here. Equal entries are not always repeated. Where two headings read alike, the source gives them in different places.
Columns and labels:
[1] = Cytotoxicity, CellTiter Glo; type: cell-based; settings: human, SK-N-MC cells, 7-day proliferation, neural crest derived lines
[2] = Cytotoxicity, CellTiter Glo; type: cell-based; settings: human, H929 cells, 5-day proliferation
[3] = Cytotoxicity, CellTiter Glo; type: cell-based; settings: human, ZR7350 cells, 7-day proliferation, neural crest derived lines
[4] = test system: HT1080 fibrosarcoma cells; test: Cell viability of HT1080 fibrosarcoma cells; type: cell-based; settings: 48 h, 0-10,000 nM
[5] = Cytotoxicity, CellTiter Glo; type: cell-based; settings: human, PA-1 cells, 7-day proliferation, neural crest derived lines
H3K9me2 [6] = test: Cellular immunostaining (In-Cell Western), H3K9Me2 antibody immunofluorescence in PC3 cells; type: cell-based, human; settings: for H3K9me2 % inhibition, single well of triplicate / inhibition at 0.03 µM / inhibition at 0.1 µM / inhibition at 0.3 µM / inhibition at 1 µM / inhibition at 3 µM: 72 hours; for inhibition at 0.03 µM / inhibition at 0.1 µM / inhibition at 0.3 µM / inhibition at 1 µM / inhibition at 3 µM: Homo sapiens, PC-3, 72 h
Experimental: For comparison, the known G9a inhibitor UNC0638 (see structure in FIG. 1) was evaluated in this study concurrently.
Human PC3 cells (ATCC, Manassas, Va.) were grown in RPMI+10% Fetal Bovine Serum and plated at 5,000 cells per well in a 96-well plate. The following day compounds and DMSO controls were added in triplicate at the indicated concentrations. Cells were fixed following incubation at 37° C. for 72 hours with 10% formaldehyde and then permeabilized with 0.1% Triton X-100. Cells were then washed with PBS and blocked with 0.1% BSA/PBS solution. Mouse anti-H3K9me2 (1:200, AbCam #1220, Cambridge, Mass.) and rabbit anti-Histone H3 (1:500, Cell Signaling Technology #4499, Danvers, Mass.) primary antibodies in 0.3% BSA were then added together to each well and incubated overnight at 4° C. The following day cells were washed in PBS-T (PBS with 0.1% Tween) followed by addition of anti-mouse (IR800) and anti-rabbit (IR700) secondary antibodies (LI-COR Biosciences, Lincoln, Nebr.) and incubated for one hour at room temperature. Cells were then washed with PBS-T followed by PBS and liquid was removed from all wells. The plate was scanned using both the 700 nm (anti-rabbit detection) and 800 nm (anti-mouse detection) channels on the Odyssey Imaging System (LI-COR Biosciences, Lincoln, Nebr.). Data was quantified using the LI-COR imaging suite and graphed as % inhibition H3K9me2/total H3/well compared to DMSO control wells. Wells treated in triplicate were averaged for each indicated concentration and error bars represent the standard deviation (n=3).

[7] = Cytotoxicity, CellTiter Glo; type: cell-based; settings: human, L-363 cells, 5-day proliferation
[8] = Cytotoxicity, CellTiter Glo; type: cell-based; settings: human, RPMI8226 cells, 5-day proliferation
[9] = Cytotoxicity, CellTiter Glo; type: cell-based; settings: human, KMS12 cells, 5-day proliferation
[10] = Cytotoxicity, CellTiter Glo; type: cell-based; settings: human, MV4;11 cells, 5-day proliferation
[11] = Cytotoxicity, CellTiter Glo; type: cell-based; settings: A-201 cells, 12-day proliferation, neural crest derived lines
[12] = Cytotoxicity, CellTiter Glo; type: cell-based; settings: human, Calu6 cells, 5-day proliferation
[13] = Cytotoxicity, CellTiter Glo; type: cell-based; settings: human, DaoY cells, 7-day proliferation, neural crest derived lines
H3K9me2 [14] = test: PK/PD study, reduction in H3K9me2 in MV4;11 xenograft; type: in vivo, SCID/bg mice; settings: for reduction in H3K9me2: 30 mg/kg/day osmotic mini-pump, relative to vehicle
Excerpt: Specifically, subcutaneous MV4;11 xenografts were implanted in SCID/bg mice and allowed to grow to 200 mm^3. […] In particular, by day 14, dimethylation of lysine 9 of histone H3 in the tumor tissue was reduced by 46 percent as compared to the vehicle.

[15] = Cytotoxicity, CellTiter Glo; type: cell-based; settings: human, G-401 cells, 7-day proliferation, neural crest derived lines
[16] = Cytotoxicity, CellTiter Glo; type: cell-based; settings: human, 22RV1 cells, 5-day proliferation
[17] = test system: human peripheral blood mononucleated cells (PBMCs); test: Viability of PBMCs (Caspase-Glo 3/7, CellTiter Glo); type: cell-based; settings: 0-10 uM, 48 h
Experimental: Following treatment, Caspase 3/7 activity (i.e., a marker of apoptosis) was assessed by the Caspase-Glo 3/7 assay system (FIG. 7A), and cell viability was assessed by CellTiter Glo assay (FIG. 7B).

[18] = Cytotoxicity, CellTiter Glo; type: cell-based; settings: human, TC-71 cells, 7-day proliferation, neural crest derived lines
[19] = Cytotoxicity, CellTiter Glo; type: cell-based; settings: human, LN229 cells, 5-day proliferation
[20] = Cytotoxicity, CellTiter Glo; type: cell-based; settings: human, DU145 cells, 5-day proliferation
[21] = Cytotoxicity, CellTiter Glo; type: cell-based; settings: human, MHH-65-1 cells, 7-day proliferation, neural crest derived lines
[22] = Cytotoxicity, CellTiter Glo; type: cell-based; settings: human, HL-60 cells, 5-day proliferation
[23] = Cytotoxicity, CellTiter Glo; type: cell-based; settings: human, SKBR3 cells, 5-day proliferation
[24] = Cytotoxicity, CellTiter Glo; type: cell-based; settings: human, CAPO-ES1 cells, 7-day proliferation, neural crest derived lines
[25] = Cytotoxicity, CellTiter Glo; type: cell-based; settings: human, RS4;11 cells, 5-day proliferation

COc1cc2c(cc1OCCCN1CCCC1)N=C(N)C21CCC1 [Example 7, 5′-methoxy-6′-(3-(pyrrolidin-1-yl)propoxy)spiro[cyclobutane-1,3′-indol]-2′-amine]
IC50 at 7 day [1]: 9.7 µM | IC50 at 5 day [2]: > 10 µM | IC50 at 7 day [3]: > 10 µM | cytotoxicity compared with UNC0638 [4]: reduced cytotoxicity | IC50 at 7 day [5]: > 10 µM | reduction of cellular levels of H3K9Me2 (H3K9me2 [6]; 3 μM): ~50% | H3K9me2 % inhibition, single well of triplicate (H3K9me2 [6]; 0.03 uM): 15.08% and 10.18% | H3K9me2 % inhibition, single well of triplicate (H3K9me2 [6]; 0.1 uM): 24.63% and 27.83% | H3K9me2 % inhibition, single well of triplicate (H3K9me2 [6]; 0.3 uM): 34.47% and 40.35% | H3K9me2 % inhibition, single well of triplicate (H3K9me2 [6]; 1 uM): 43.83% and 45.11% | H3K9me2 % inhibition, single well of triplicate (H3K9me2 [6]; 3 uM): 47.77% and 48.92% | inhibition at 0.03 µM (H3K9me2 [6]; 0.03 uM, n=3, read-out: H3K9me2 % inhibition, average): 12% | inhibition at 0.03 µM (H3K9me2 [6]; 0.03 uM, read-out: H3K9me2 % inhibition, single well of triplicate): 10.8% | inhibition at 0.1 µM (H3K9me2 [6]; 0.1 uM, n=3, read-out: H3K9me2 % inhibition, average): 24.3% | inhibition at 0.1 µM (H3K9me2 [6]; 0.1 uM, read-out: H3K9me2 % inhibition, single well of triplicate): 20.6% | inhibition at 0.3 µM (H3K9me2 [6]; 0.3 uM, n=3, read-out: H3K9me2 % inhibition, average): 37.1% | inhibition at 0.3 µM (H3K9me2 [6]; 0.3 uM, read-out: H3K9me2 % inhibition, single well of triplicate): 36.6% | inhibition at 1 µM (H3K9me2 [6]; 1 uM, n=3, read-out: H3K9me2 % inhibition, average): 44.4% | inhibition at 1 µM (H3K9me2 [6]; 1 uM, read-out: H3K9me2 % inhibition, single well of triplicate): 44.2% | inhibition at 3 µM (H3K9me2 [6]; 3 uM, n=3, read-out: H3K9me2 % inhibition, average): 47.5% | inhibition at 3 µM (H3K9me2 [6]; 3 uM, read-out: H3K9me2 % inhibition, single well of triplicate): 45.9% | levels of total histone 3, H3K27Me3, H3K36Me2, H3K4me2, H3K4me3 and H3K9me3 (H3K9me2 [6]; similar conditions): unaltered | cell viability as measured by total histone H3 (H3K9me2 [6]; versus no treatment): No difference in cell viability | IC50 at 5 day [7]: > 10 µM | IC50 at 5 day [8]: > 10 µM | IC50 at 5 day [9]: > 10 µM | IC50 at 5 day [10]: > 10 µM | IC50 at 12 day [11]: > 10 µM | IC50 at 5 day [12]: > 10 µM | IC50 at 7 day [13]: > 10 µM | reduction in H3K9me2 (H3K9me2 [14]; Day 2): 0% | reduction in H3K9me2 (H3K9me2 [14]; Day 7): 25% | reduction in H3K9me2 (H3K9me2 [14]; Day 14): 46% | reduction of dimethylation of lysine 9 of histone H3 in the tumor tissue (H3K9me2 [14]; day 14, compared to vehicle): 46% | IC50 at 7 day [15]: > 10 µM | IC50 at 5 day [16]: > 10 µM | effect on PBMC viability (Caspase 3/7 activity and CellTiter Glo) [17]: no effect on cell viability | IC50 at 7 day [18]: > 10 µM | IC50 at 5 day [19]: > 10 µM | IC50 at 5 day [20]: > 10 µM | IC50 at 7 day [21]: > 10 µM | IC50 at 5 day [22]: > 10 µM | IC50 at 5 day [23]: > 10 µM | IC50 at 7 day [24]: > 10 µM | IC50 at 5 day [25]: > 10 µM
